This is an account of results in publication PMC2715142 (Lipids, 2008).

Where two headings read alike, the source gives them in different places.

The target in test [1] is TBCYP51 (Trypanosoma brucei brucei, UniProt Q385E8). Type of test: binding.
Test [2] has as its target T1, TCCYP51 (Trypanosoma cruzi, UniProt Q7Z1V1). Type of test: binding. To be noted: for spectral response: TCCYP51.
Test [3] deals with I105F mutant of TCCYP51 (Trypanosoma cruzi, UniProt Q7Z1V1, I105F). It counts as binding.
Test [4] deals with Trypanosoma brucei. Kind of test: TB cellular growth inhibition. It counts as cell-based. To be noted: read-out: EC50 / 50% cell growth inhibition for TB, form not stated.
Test [5] concerns Trypanosoma cruzi. Kind of test: TC cellular growth inhibition. It counts as cell-based.
Test [6] has as its system TC infected cardiomyoblasts. Kind of test: inhibition of TC multiplication within cardiomyoblasts. The conditions noted are these: 30 µM. Type of test: cell-based, Trypanosoma cruzi.
The target in test [7] is T1, TCCYP51. To be noted: cited from earlier work.
Test [8] concerns the target T1, TCCYP51. The conditions noted are these: cited from earlier work. The source holds these as a separate data set.
In test [9] the target is T1, TCCYP51. It counts as biochemical. To be noted: T. cruzi CYP51, initial rate.
Test [10] has as its system Trypanosoma cruzi. The conditions noted are these: read-out: published EC50 values in TC cells; cited from earlier work.

In the case of “32-Methylene cyclopropyl-lanost-7-enol [MCP]”, the spectral response result in [1] (TBCYP51), in test [2] and in test [3] was “type 1 spectral responses” throughout. The “high spin content (low to high spin transition in the heme iron)” value in test [1] (TBCYP51, maximal upon titration) is 85%; in test [2] (TCCYP51, maximal upon titration), 41%. For the same compound, the high spin form in test [3] is reported as 87%. Besides, the EC50 in test [4] was over 50 µM; in test [5] (read-out: 50% cell growth inhibition of TC, TC, form not stated), 3 µM. The “parasite cells cleared from TC infected cardiomyoblasts” value in test [6] was “more than 90%”. Further, the “number of intracellular parasites” value in test [6] (72 h, trypanosomes pre-incubated with compound) is listed as “dramatic decrease in the number of intracellular parasites”.

As to `CC(C)CCC[C@@H](C)[C@H]1CC[C@@]2(CN)C3=CCC4C(C)(C)[C@@H](O)CC[C@]4(C)[C@H]3CC[C@]12C` (stereo partly drawn) [AL7, 4,4-dimethyl-14α-aminomethyl-cholest-7-en-3β-ol], the “I/E2 for the initial rate of TCCYP51 catalysis” value in [7] is listed as 11. In addition, the spectral response result in test [8] is given as “type 2 spectral responses”.

Take `CC(C)CCC[C@@H](C)[C@H]1CC[C@@]2(CN)C3=C(CC[C@]12C)[C@@]1(C)CC[C@H](O)C(C)(C)C1CC3` (stereo partly drawn) [AL8, 4,4-dimethyl-14α-aminomethyl-cholest-8-en-3β-ol]: the “I/E2 for the initial rate of TCCYP51 catalysis” value in [7] is on record as 14. Moreover, the spectral response entry in test [8] is “type 2 spectral responses”.

`O=C(NC(Cn1ccnc1)c1ccccc1)c1ccc(-c2ccc(Cl)cc2)cc1` (stereo not shown) [SDZ285604]: the EC50 in test [5] (read-out: EC50 (50% cellular growth inhibition), amastigotes (intracellular form) of TC) is under 1 µM; in [5] (read-out: EC50 (50% cellular growth inhibition), trypomastigotes (extracellular form) of TC) it was under 1 µM.

In the case of `O=C(Cn1ccnc1[N+](=O)[O-])NCc1ccccc1` [benznidazole], in [9], the “I/E2 (5 min), molar ratio inhibitor/enzyme which causes a twofold decrease in the activity” value stood at 42. The spectral response entry in test [2] was “does not induce spectral changes”. Also, the EC50 in test [10] was 25 to 50 µM.
